Our source for the IC50 and melting point values is patent US6518424B1, “Substituted pyrimidine compositions and methods of use” (Elan Pharmaceuticals, Inc., priority 1998, dated 2003).

The target in one data set is T1, cPLA2 (Homo sapiens, UniProt P47712).
T1 construct: using cPLA2 enzyme from the cytosolic extraction of U937 cells; endogenous in cells; host or cells: human U937 cells, cytosolic extract (N2 cavitation, 100,000 g supernatant)
T1 sequence (P47712 1-749): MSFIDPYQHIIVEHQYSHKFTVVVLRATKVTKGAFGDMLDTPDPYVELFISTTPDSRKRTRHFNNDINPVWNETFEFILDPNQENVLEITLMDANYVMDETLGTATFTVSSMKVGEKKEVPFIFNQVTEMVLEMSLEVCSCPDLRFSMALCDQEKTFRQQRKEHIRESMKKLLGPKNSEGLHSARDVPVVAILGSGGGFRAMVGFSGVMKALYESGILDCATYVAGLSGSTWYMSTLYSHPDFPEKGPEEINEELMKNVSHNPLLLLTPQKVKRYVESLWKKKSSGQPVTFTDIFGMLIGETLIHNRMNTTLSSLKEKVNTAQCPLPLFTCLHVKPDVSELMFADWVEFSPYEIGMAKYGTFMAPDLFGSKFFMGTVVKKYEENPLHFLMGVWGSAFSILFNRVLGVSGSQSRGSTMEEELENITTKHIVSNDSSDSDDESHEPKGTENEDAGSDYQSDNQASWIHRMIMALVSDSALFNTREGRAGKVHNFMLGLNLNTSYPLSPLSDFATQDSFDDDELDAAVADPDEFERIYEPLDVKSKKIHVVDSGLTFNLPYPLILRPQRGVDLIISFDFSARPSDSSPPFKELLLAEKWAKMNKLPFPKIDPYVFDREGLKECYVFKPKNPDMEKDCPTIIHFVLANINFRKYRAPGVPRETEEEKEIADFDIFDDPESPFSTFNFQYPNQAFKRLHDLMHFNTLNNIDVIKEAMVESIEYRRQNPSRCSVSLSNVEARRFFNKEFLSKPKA
Put plainly: cPLA2 enzyme assay using U937 cytosolic extract as enzyme source (release of [14C]-AA from phosphatidylcholine). It counts as biochemical. The note with it: asterisk on compound number in Table I. On the procedure:
The PLA2 inhibitory properties of the compounds of the present invention were evaluated using the following assays. Inhibition of release of [^14C]-AA from phosphatidylcholine was measured according to standard methods. Human U937 cells were cultured in RPMI 1640 medium supplemented with 10% fetal bovine serum, penicillin, L-glutamine, and HEPES buffer. Cells were harvested and washed 3 times with extraction buffer (140 mM NaCl—5 mM KCl—2 mM EDTA—25 mM Tris pH 7.4) and resuspended at 1×10^8 cells/mL containing 100 μM leupeptin—50 μM pepstatin—1 mM PMSF. Cells were placed in a N2 cavitation bomb and put under pressure at 600 psi or maximum pressure for 20 minutes at 4° C. Cells were then released. The suspension was collected and centrifuged at 100,000 g for 60 minutes at 4° C. The resulting supernatant was collected and filtered through a 0.22 μm filter. Extract was then diluted to 50% glycerol and stored at −20° C.
For the preparation of substrate, 20 nmol of phosphatidylcholine-α-1-palmitoyl-2-arachidonyl-1-[^14C] and 10 nmol 1,2-dioleyl-glycerol were mixed together and dried under a N2 stream. A solution of 1 mL of 150 mM NaCl—50 mM HEPES pH 7.5 was added to the mixture. To reconstitute liposomes, the mixture was sonicated using a Branson 450 sonifier for 2 minutes at 50% duty cycle output level 3 on ice. After sonification, 40 μL of a 100 mg/mL BSA solution was added per mL.
The compounds were first dissolved in DMSO at 2 mM and serially diluted in DMSO by a factor of five for a total of 5 concentrations. These dilutions were further dissolved 60 fold in reaction buffer (150 mM NaCl—50 mM HEPES pH 7.5—1 mM CaCl2—1 mM 2-ME) containing approximately 5% of the U937 cytosolic extract to make up the preincubation mixture which was then incubated for 20 minutes at 37° C. Vehicle control using only DMSO with no compound was also made. To 30 μL of this Extract/compound mixture was added 10 μL of substrate. The 40 μL reaction mixture was incubated for 15 minutes at 37° C., and the reaction was stopped by adding 400 μL Dole's reagent [2-propanol/heptane/0.5 M H2SO4 (40:10:1) 10 μg/mL stearic acid]. This was followed by the addition of 240 μL heptane and 200 μL water. 280 μL of the top heptane layer was transferred to a tube containing […] silica gel with 200 μL heptane and mixed vigorously. Silica gel was then centrifuged at 1000 g for 1 minute. 400 μL of liquid was transferred to scintillation vial along with 4 mL of Beckman Ready Safe scintillation cocktail and mixed. Radioactivity was determined in a Beckman scintillation counter.
The compounds of the present invention were assayed for cPLA2 activity using cPLA2 enzyme from the cytosolic extraction of U937 cells (all procedures carried out on ice). […]

As a reminder, the IC50 is the concentration at which inhibition is half-maximal. Low values mean greater potency, high ones weaker potency. The melting point is the temperature, or range, at which the solid turns liquid.

`CCCc1ccc(C(c2ccccc2)c2cc(O)nc(-c3ccccc3)n2)cc1` (centres unmarked) [Compound 18, 6-((4-n-Propyl)phenyl,phenyl)methyl-2-phenyl-pyrimidine-4-ol] gave a melting point of 149 to 154 °C. The IC50 on cPLA2 is less than 100 nM.

Regarding `CCCc1ccc(C(c2ccccc2)c2cc(O)nc(-c3ccccc3)n2)cc1` (centres unmarked) [Compound 19, 6-((4-Propyl)phenyl,phenyl)methyl-2-phenyl-pyrimidine-4-ol], the IC50 against cPLA2 was less than 100 nM.

Consider `CC(C)Oc1ccc(C(c2ccccc2)c2cc(O)nc(-c3ccccc3)n2)cc1` (centres unmarked) [Compound 21, 6-((4-Isopropoxy)phenyl,phenyl)methyl-2-phenyl-pyrimidine-4-ol], for which, on cPLA2, the IC50 is less than 100 nM.

`CC(C)Oc1ccc(C(c2ccccc2)c2cc(O)nc(-c3ccccc3)n2)cc1` (centres unmarked) [Compound 22, 6-((4-Isopropoxy)phenyl,phenyl)methyl-2-phenyl-pyrimidine-4-ol]: on cPLA2, the concentration for half-maximal inhibition (IC50) is less than 100 nM.
